Assays:
Alopec. myosur. [1] = assay: preemergence application in the open, % damage; assay type: in vivo
Experimental: (§1) The experiments were carried out on small plots. The soil was a sandy loam having a pH of from 5 to 6 and containing from 1 to 1.5% humus. The treatment was preemergence, the active ingredients being applied immediately or at the latest 3 days after sowing. The crop plants were sown in rows. The weed flora was made up of the most widely varying species and was natural; the weed flora depended on the time of the year and in part on the crop (e.g., spring-germinating, summer-germinating). The substances were emulsified or suspended in water as the vehicle, and applied by means of a motor-driven plot spray mounted on a hitch. When no rain fell, the plots were watered to ensure germination and growth of the crop plants and weeds. All the experiments were run for several weeks. Over this period, assessments were made at certain intervals on the 0 to 100 scale.

Anth./Matric. = assay: preemergence application in the open, % damage; assay type: in vivo
Experimental: as §1

Brassica napus [2] = assay: preemergence application in the open, % damage; assay type: in vivo
Experimental: as §1

Lamium spp. = assay: preemergence application in the open, % damage; assay type: in vivo
Experimental: as §1

Stellaria media = assay: preemergence application in the open, % damage; assay type: in vivo
Experimental: as §1

Alopec. myosur. [3] = assay: preemergence treatment in the greenhouse, % damage; assay type: in vivo
From the text: (§2) The vessels employed were plastic flowerpots having a volume of 300 cm^3; the substrate was a sandy loam containing about 1.5% humus. The seeds of the test plants (see Table 1) were sown shallow, and separated according to species. In the case of Cyperus esculentus, pregerminated tubers were planted. In the preemergence treatment, the active ingredients were then immediately applied to the surface of the soil. They were suspended or emulsified in water as the vehicle, and sprayed through atomizing nozzles. After the agents had been applied, the vessels were lightly sprinkler-irrigated to set germination and growth going, and to activate the chemical agents. The vessels were then covered with transparent plastic hoods until the plants had taken root. This cover ensured uniform germination of the test plants (to the extent that this was not impaired by the chemicals), and prevented readily volatile substances from evaporating.
(§3) For postemergence treatment, the plants were first grown to a height of from 3 to 10 cm, depending on their habit, before treated. Hoods were not placed on the pots. The experiments were set up in the greenhouse, hotter areas (25° to 40° C.) being preferred for heat-loving species, and 15° to 30° C. for plants from moderate climates. The experiments were carried out for from 4 to 6 weeks. During this period the plants were tended and their reaction to the various treatments was assessed. The following tables contain the substances investigated, the application rates in kg/ha of active ingredient, and the test plant species. Assessments were made on a 0 to 100 scale, 0 denoting no damage or normal emergence, and 100 denoting no emergence or complete destruction of at least the visible plant parts.

Brassica napus [4] = assay: preemergence treatment in the greenhouse, % damage; assay type: in vivo
From the text: as §2, §3

Bromus spp. = assay: preemergence treatment in the greenhouse, % damage; assay type: in vivo
From the text: as §2, §3

Echin. c.g. = assay: preemergence treatment in the greenhouse, % damage; assay type: in vivo
From the text: as §2, §3

Matric. spp. = assay: preemergence treatment in the greenhouse, % damage; assay type: in vivo
From the text: as §2, §3

Setaria spp. [5] = assay: preemergence treatment in the greenhouse, % damage; assay type: in vivo
From the text: as §2, §3

Solanum nigrum = assay: preemergence treatment in the greenhouse, % damage; assay type: in vivo
From the text: as §2, §3

Zea mays = assay: preemergence treatment in the greenhouse, % damage; assay type: in vivo
From the text: as §2, §3

Amar. retro. = assay: preemergence treatment in the greenhouse, % damage; assay type: in vivo
From the text: as §2, §3

Chrys. seget. = assay: preemergence treatment in the greenhouse, % damage; assay type: in vivo; conditions: 0.25 kg/ha
From the text: as §2, §3

Cyp. diff. = assay: preemergence treatment in the greenhouse, % damage; assay type: in vivo
From the text: as §2, §3

Euph. gen. = assay: preemergence treatment in the greenhouse, % damage; assay type: in vivo; conditions: 0.25 kg/ha
From the text: as §2, §3

Poa annua = assay: preemergence treatment in the greenhouse, % damage; assay type: in vivo
From the text: as §2, §3

Sorgh. halep. = assay: preemergence treatment in the greenhouse, % damage; assay type: in vivo
From the text: as §2, §3

Avena fat. = assay: postemergence application in the greenhouse, % damage; assay type: in vivo
From the text: as §2, §3

Setaria spp. [6] = assay: as above; assay type: in vivo
From the text: as §2, §3

Stell. med. = assay: as above; assay type: in vivo
From the text: as §2, §3

Cyper. escul. = assay: as above; assay type: in vivo, Cyperus esculentus
From the text: as §2, §3

Beta vulg. = assay: Table 13, % damage; assay type: in vivo, Beta vulgaris
From the text: as §2, §3

Alopec. myosur. [7] = assay: Table 13, % damage; assay type: in vivo
From the text: as §2, §3

Echin c.g. = assay: Table 13, % damage; assay type: in vivo
From the text: as §2, §3

Setar. spp. = assay: Table 13, % damage; assay type: in vivo
From the text: as §2, §3

CCc1cccc(C)c1N(Cn1cncn1)C(=O)CCl [Compound 129]
% damage (Alopec. myosur. [1]; 2.0 kg/ha): 35%
% damage (Alopec. myosur. [1]; 4.0 kg/ha): 68%
% damage (Anth./Matric.; one value printed for two rates (2.0 4.0 kg/ha)): 35%
% damage (Brassica napus [2]; 2.0 kg/ha): 7.5%
% damage (Brassica napus [2]; 4.0 kg/ha): 22.5%
% damage (Lamium spp.; 2.0 kg/ha): 45%
% damage (Lamium spp.; 4.0 kg/ha): 90%
% damage (Stellaria media; 2.0 kg/ha): 24%
% damage (Stellaria media; 4.0 kg/ha): 49%

Cc1cc(C)n(CN(C(=O)CCl)c2ccccc2C)n1
% damage (Alopec. myosur. [3]; 1.0 kg/ha): 85%
% damage (Brassica napus [4]; 1.0 kg/ha): 10%
% damage (Bromus spp.; 1.0 kg/ha): 95%
% damage (Echin. c.g.; 1.0 kg/ha): 85%
% damage (Matric. spp.; 1.0 kg/ha): 90%
% damage (Setaria spp. [5]; 1.0 kg/ha): 60%
% damage (Solanum nigrum; 1.0 kg/ha): 100%
% damage (Zea mays; 1.0 kg/ha): 0%

CCc1cccc(C)c1N(Cn1nc(C)cc1C)C(=O)CCl [Compound 40]
% damage (Amar. retro.; 0.125 kg/ha): 90%
% damage (Amar. retro.; 0.25 kg/ha): 100%
% damage (Bromus spp.; 0.25 kg/ha): 80%
% damage (Chrys. seget.): 30%
% damage (Cyp. diff.; 0.125 kg/ha): 100%
% damage (Cyp. diff.; 0.25 kg/ha): 100%
% damage (Euph. gen.): 0%
% damage (Poa annua; 0.25 kg/ha): 100%
% damage (Solanum nigrum; one value printed for two rates (0.125 0.25 kg/ha)): 95%
% damage (Sorgh. halep.; 0.125 kg/ha): 60%
% damage (Sorgh. halep.; 0.25 kg/ha): 60%
% damage (Alopec. myosur. [1]; 1.0 kg/ha): 50%
% damage (Anth./Matric.; 1.0 kg/ha): 90%
% damage (Brassica napus [2]; 1.0 kg/ha): 20%
% damage (Lamium spp.; 1.0 kg/ha): 60%
% damage (Stellaria media; 1.0 kg/ha): 68%

Cc1ccccc1N(Cn1cccn1)C(=O)CCl
% damage (Alopec. myosur. [3]; 2.0 kg/ha): 90%
% damage (Brassica napus [4]; 2.0 kg/ha): 0%
% damage (Bromus spp.; 2.0 kg/ha): 80%
% damage (Echin. c.g.; 2.0 kg/ha): 95%
% damage (Matric. spp.; 2.0 kg/ha): 90%
% damage (Setaria spp. [5]; 2.0 kg/ha): 95%
% damage (Solanum nigrum; 2.0 kg/ha): 95%
% damage (Zea mays; 2.0 kg/ha): 15%

CCc1cccc(C)c1N(Cn1cncn1)C(=O)CCl [Compound 191]
% damage (Alopec. myosur. [1]; 2.0 kg/ha): 30%
% damage (Alopec. myosur. [1]; 4.0 kg/ha): 80%
% damage (Anth./Matric.; 2.0 kg/ha): 53%
% damage (Brassica napus [2]; 2.0 kg/ha): 5%
% damage (Brassica napus [2]; 4.0 kg/ha): 20%
% damage (Lamium spp.; 2.0 kg/ha): 40%
% damage (Lamium spp.; 4.0 kg/ha): 85%
% damage (Stellaria media; 2.0 kg/ha): 18%
% damage (Stellaria media; 4.0 kg/ha): 45%

Cc1cc(C)n(CN(C(=O)CCl)c2c(C)cccc2C)n1 [Compound 38]
% damage (Amar. retro.; 0.125 kg/ha): 75%
% damage (Amar. retro.; 0.25 kg/ha): 100%
% damage (Bromus spp.; 0.125 kg/ha): 95%
% damage (Bromus spp.; 0.25 kg/ha): 100%
% damage (Cyp. diff.; 0.125 kg/ha): 100%
% damage (Cyp. diff.; 0.25 kg/ha): 100%
% damage (Poa annua; 0.125 kg/ha): 100%
% damage (Poa annua; 0.25 kg/ha): 100%
% damage (Sorgh. halep.; 0.125 kg/ha): 70%
% damage (Sorgh. halep.; 0.25 kg/ha): 95%
% damage (Alopec. myosur. [1]; 2.0 kg/ha): 80%
% damage (Anth./Matric.; 2.0 kg/ha): 100%
% damage (Brassica napus [2]; 2.0 kg/ha): 0%
% damage (Lamium spp.; 2.0 kg/ha): 100%
% damage (Stellaria media; 2.0 kg/ha): 88%
% damage (Avena fat.; 1.0 kg/ha): 70%
% damage (Avena fat.; 2.0 kg/ha): 90%
% damage (Setaria spp. [6]; 1.0 kg/ha): 85%
% damage (Setaria spp. [6]; 2.0 kg/ha): 85%
% damage (Stell. med.; 1.0 kg/ha): 100%
% damage (Stell. med.; 2.0 kg/ha): 100%
% damage (Cyper. escul.; 1.0 kg/ha): 80%
% damage (Cyper. escul.; 2.0 kg/ha): 80%

CCc1cccc(C)c1N(Cn1cnc(Cl)c1Cl)C(=O)CCl
% damage (Beta vulg.; appl. rate 0.5): 0%
% damage (Beta vulg.; appl. rate 1.0): 0%
% damage (Alopec. myosur. [7]; appl. rate 0.5): 100%
% damage (Alopec. myosur. [7]; appl. rate 1.0): 100%
% damage (Echin c.g.; appl. rate 0.5): 100%
% damage (Echin c.g.; appl. rate 1.0): 100%
% damage (Setar. spp.; appl. rate 0.5): 100%
% damage (Setar. spp.; appl. rate 1.0): 100%

Cc1ccccc1N(Cn1nccc1C)C(=O)CCl
% damage (Alopec. myosur. [3]; 2.0 kg/ha): 90%
% damage (Brassica napus [4]; 2.0 kg/ha): 10%
% damage (Bromus spp.; 2.0 kg/ha): 90%
% damage (Echin. c.g.; 2.0 kg/ha): 95%
% damage (Matric. spp.; 2.0 kg/ha): 90%
% damage (Setaria spp. [5]; 2.0 kg/ha): 100%
% damage (Solanum nigrum; 2.0 kg/ha): 100%
% damage (Zea mays; 2.0 kg/ha): 0%

— US4593104A, “2-halo-N-(azole-1-yl-methyl)-substituted acetanilides” (BASF Aktiengesellschaft, priority 1976, dated 1986)
